Results published in article PMC6326523, “A high-throughput screen to identify novel small molecule inhibitors of the Werner Syndrome Helicase-Nuclease (WRN)” (PLoS ONE, 2019).
Read-outs that look alike come from different tables or passages of the source.

Tests used:
Type in all cases: biochemical
[1] = molecular target: T1, full-length WRN exonuclease activity (Homo sapiens, UniProt Q14191); assay: WRN exonuclease activity on radiolabeled FORKR DNA substrate; conditions: WRN 20 nM, FORKR 1 nM; for Inhibition of WRN exonuclease activity: same concentration range as activity against WRN helicase
T1 construct: Full length recombinant WRN [18], BLM [19], and FANCJ [20] proteins were purified from insect cells; made in house; host or cells: insect cells
Procedure: Fig 8 Specificity of selected compounds for inhibiting full-length WRN helicase activity. […] (B) Gel image of full-length WRN (20 nM) exonuclease activity on the radiolabeled FORKR DNA substrate (1 nM) in the presence of increasing concentrations of NCGC00029283-03, NCGC00063279-03 and NCGC00357377-01 (0–200 μM).
Three compounds identified from the cherry-picked set were tested for their effects on WRN exonuclease activity (20 nM) on the FORKR DNA substrate (1 nM) as well as DNA unwinding by full-length BLM (0.1 nM) and FANCJ (5 nM) helicases, which belong to the same Superfamily 2 as WRN [25], to assess their specificity for inhibition of WRN-catalyzed unwinding of the FORKR DNA substrate (0.5 nM). […] Nonetheless, these two compounds were also further tested in cell-based assays to assess their effects on proliferation.

full-length WRN helicase = molecular target: T2, full-length WRN helicase (Homo sapiens, UniProt Q14191); assay: Radiometric helicase inhibitor assay, full-length WRN unwinding of FORKR DNA substrate; conditions: FORKR 0.5 nM; for remaining activity at 50 µM: 50 μM compound, read-out: % Control WRN Helicase Activity;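 as to all read-outs here: WRN preincubated with compound 15 min at room temperature, then unwinding run 15 min at 37 °C with 2 mM ATP, relative to WRN unwinding without compound (100%)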
T2 construct: Full length recombinant WRN [18], BLM [19], and FANCJ [20] proteins were purified from insect cells; made in house; host or cells: insect cells
Procedure: Fifteen μL of reaction buffer was added to a microcentrifuge tube followed by the addition of 1 μL of selected compounds (0.5–100 μM final concentration) or DMSO. One μL of WRN (full length), RECQ1, FANCJ, BLM or control was added to each reaction and incubated at room temperature for 15 min. Three μL of substrate (0.5 nM FORKR and 2 mM ATP final concentrations) were added to all reactions which were incubated at 37°C for 15 min. Reactions were stopped with the addition of 20 μL of 2X STOP dye containing EDTA, glycerol, bromphenol blue and xylene cyanol. Samples were electrophoresed for 1.5 hr at 200 V on a 12% non-denaturing PAGE gel in 1X TBE Buffer.
The compounds were tested at a single concentration of 50 μM in the radiometric helicase assay with full-length recombinant WRN protein (1 nM) and the FORKR DNA substrate (0.5 nM) as described in the Materials and Methods section.
For each compound, we performed titrations over a wide range of concentrations with a fixed concentration of full-length WRN protein (1 nM), and quantitated unwinding as a percentage of full-length WRN unwinding of the FORKR DNA substrate (0.5 nM) in the absence of compound (Fig 6A and 6B, S3 Fig). […] In addition to determining an IC50 value for each compound, we also conducted helicase assays to determine the reversibility of inhibition by each compound tested. […] The reaction was diluted 100-fold with the addition of DNA substrate (0.5 nM final concentration) and ATP (2 mM final concentration) and unwinding was measured (Fig 7A–7D, S4 Fig). Inhibition was either classified as reversible, partially reversible, minimally reversible, or irreversible based on the ability of helicase activity to recover after dilution of the compound 100-fold.

[2] = molecular target: T3, GST-WRN500-946 helicase domain fragment (Homo sapiens, UniProt Q14191); assay: High-throughput fluorometric helicase screen, PubChem AID 651768; conditions: initial qHTS; 20 nM GST-WRN500-946; 100 nM FORKF; NA = Not Active; read-out: IC50 (μM) Assay ID 651768
T3 construct: made in house; host or cells: insect cells
Procedure: The structures of the members of this collection are available in the PubChem portal https://pubchem.ncbi.nlm.nih.gov/. For both the 350,000 small molecule collection and the LOPAC^1280 screens, 3 μL of GST-WRN500-946 or reaction buffer only were dispensed using a solenoid-valve nanoliter dispenser into a black 1536-well plate (Greiner). Twenty three nL of each serially diluted compound (0.08–50 μM for the LOPAC screen and 0.003–114 μM for the larger library screen) or control were added to each well using a Kalypsys pintool equipped with a 1536-pin array. Plates were incubated at room temperature for 15 min, followed by initiation of the reactions via the addition of 1 μL of substrate (100 nM FORKF and 2 mM ATP final concentrations). Plates were transferred to a ViewLux high-throughput CCD imager and fluorescence was measured in kinetic mode using an excitation filter of 525 nm and emission filter of 598 nm.
Zʹ factor, a measure for assay quality control was calculated using the formula Z′ = 1−(3σS^++3σS^−)∕|μS^+−μS^−| as described previously. In this formula, 3σS^+ represents 3 standard deviations from the mean of positive signals while 3σS^− represents 3 standard deviations from the mean of negative signals. μS^+ and μS^− represent the mean of positive signals and negative signals respectively. Percent activity was derived using in-house software (http://tripod.nih.gov/curvefit/). Dose-response curves were classified as described previously.
A collection of approximately 350,000 compounds is available for screening which has been assembled from multiple sources to provide diverse chemical scaffolds with known purity, identity and solubility. To perform the high-throughput screen of these compounds, we needed to produce approximately 50 milligrams of recombinant WRN helicase fragment. To accomplish this, we cloned the helicase domain fragment into several plasmids for either insect cell or bacterial expression to optimize expression and yield. We selected expression plasmids for insect cell expression with either a GST or MBP tag (image A in S1 Fig) and purified the protein (image B in S1 Fig). The GST-WRN500-946 fragment isolated from insect cells was used in the high throughput screen with the conditions described in Fig 2C (20 nM GST-WRN500-946, 100 nM FORKF DNA substrate) and a summary of the results can be found on PubChem (National Center for Biotechnology Information. PubChem BioAssay Database; Assay Identifier (AID) = 651768, https://pubchem.ncbi.nlm.nih.gov/bioassay/651768). […] To verify the active compounds, approximately 600 hit molecules were retested in a confirmatory screen also found on PubChem (National Center for Biotechnology Information. PubChem AID = 720497, https://pubchem.ncbi.nlm.nih.gov/bioassay/720497). Of these, a little less than four hundred compounds were confirmed as active compounds.

[3] = radiometric assay, full-length WRN 1 nM, compound 0-100 μM, read-out: IC50
[4] = resynthesized or repurified compounds, full-length WRN, read-out: IC50 (μM): WRN

T1 sequence (Q14191 whole entry): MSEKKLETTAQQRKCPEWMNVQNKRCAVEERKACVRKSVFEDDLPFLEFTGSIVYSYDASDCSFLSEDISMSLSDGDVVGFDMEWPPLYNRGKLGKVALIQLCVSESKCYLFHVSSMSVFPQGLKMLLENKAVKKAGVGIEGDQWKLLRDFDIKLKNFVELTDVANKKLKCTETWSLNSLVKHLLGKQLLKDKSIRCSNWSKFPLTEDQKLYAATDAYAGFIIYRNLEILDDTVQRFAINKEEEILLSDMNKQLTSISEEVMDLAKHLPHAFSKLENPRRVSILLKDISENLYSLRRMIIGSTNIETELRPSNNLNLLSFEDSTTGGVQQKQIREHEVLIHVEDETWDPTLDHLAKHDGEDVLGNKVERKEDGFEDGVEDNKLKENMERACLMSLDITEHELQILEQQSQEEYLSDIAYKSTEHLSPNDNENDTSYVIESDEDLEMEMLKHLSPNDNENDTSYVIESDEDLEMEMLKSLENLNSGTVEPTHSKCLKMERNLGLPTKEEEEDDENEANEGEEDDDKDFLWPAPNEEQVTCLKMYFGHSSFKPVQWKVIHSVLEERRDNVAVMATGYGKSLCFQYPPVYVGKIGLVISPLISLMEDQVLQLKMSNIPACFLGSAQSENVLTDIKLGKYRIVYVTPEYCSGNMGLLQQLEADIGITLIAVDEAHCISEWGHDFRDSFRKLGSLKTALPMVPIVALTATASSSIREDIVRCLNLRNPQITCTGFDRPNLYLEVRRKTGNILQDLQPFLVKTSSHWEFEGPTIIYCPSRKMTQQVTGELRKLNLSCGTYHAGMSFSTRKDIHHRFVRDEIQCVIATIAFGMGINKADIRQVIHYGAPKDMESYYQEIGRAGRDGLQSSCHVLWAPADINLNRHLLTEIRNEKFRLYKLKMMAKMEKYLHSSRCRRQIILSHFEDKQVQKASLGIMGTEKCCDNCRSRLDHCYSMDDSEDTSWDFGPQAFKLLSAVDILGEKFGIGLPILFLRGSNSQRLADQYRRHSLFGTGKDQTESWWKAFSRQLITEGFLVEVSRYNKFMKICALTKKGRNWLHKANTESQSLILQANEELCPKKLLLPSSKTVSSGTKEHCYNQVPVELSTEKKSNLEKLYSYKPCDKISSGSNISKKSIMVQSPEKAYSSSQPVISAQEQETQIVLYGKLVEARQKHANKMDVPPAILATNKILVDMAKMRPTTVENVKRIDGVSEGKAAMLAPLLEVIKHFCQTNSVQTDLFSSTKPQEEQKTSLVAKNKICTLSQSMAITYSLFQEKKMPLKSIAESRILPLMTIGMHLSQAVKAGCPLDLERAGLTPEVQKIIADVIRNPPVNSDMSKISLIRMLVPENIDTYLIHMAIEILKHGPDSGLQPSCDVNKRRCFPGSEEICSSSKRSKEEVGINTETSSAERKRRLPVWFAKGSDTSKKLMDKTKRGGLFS
T2 sequence (Q14191 whole entry): as above
T3 sequence (Q14191 500-946): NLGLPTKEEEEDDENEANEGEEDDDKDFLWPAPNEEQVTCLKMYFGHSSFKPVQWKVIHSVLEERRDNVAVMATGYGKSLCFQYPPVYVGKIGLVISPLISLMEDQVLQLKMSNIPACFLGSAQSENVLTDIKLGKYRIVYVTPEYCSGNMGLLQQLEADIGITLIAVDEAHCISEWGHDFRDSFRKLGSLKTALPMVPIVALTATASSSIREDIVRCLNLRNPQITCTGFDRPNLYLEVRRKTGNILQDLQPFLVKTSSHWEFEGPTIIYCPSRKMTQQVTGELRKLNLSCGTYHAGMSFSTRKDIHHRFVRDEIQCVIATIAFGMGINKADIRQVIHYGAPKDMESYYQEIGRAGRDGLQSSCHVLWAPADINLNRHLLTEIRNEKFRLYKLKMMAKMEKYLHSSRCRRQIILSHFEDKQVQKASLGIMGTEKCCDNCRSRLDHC

For `Cc1ccc(-c2csc(NS(=O)(=O)c3cccc(F)c3)n2)o1` [MLS002251300-02], the “Inhibition of WRN exonuclease activity at 200 μM” value (shortened to “Inhibition … at 200 μM”) [1] was “some ability to inhibit”, the “Inhibition of WRN exonuclease activity” value [1] was “unable to inhibit” and the remaining activity at 50 µM (full-length WRN helicase; full-length WRN 1 nM) was 1%. The IC50 (full-length WRN helicase; [3]) was 4 µM, the IC50 (full-length WRN helicase; [4]) was 5 ± 1.4 µM and the IC50 [2] was 31.6 µM.
In the case of `COc1ccc2nc(O)c(-c3noc(-c4ccc(F)cc4)n3)cc2c1` [NCGC00029283-02], the “Inhibition … at 200 μM” value [1] is reported as “some ability to inhibit”, the “Inhibition of WRN exonuclease activity” value [1] is reported as “unable to inhibit” and the remaining activity at 50 µM (full-length WRN helicase; full-length WRN 1 nM) is reported as 6%. For the same molecule, the IC50 (full-length WRN helicase; [3]) was 3 µM, the IC50 (full-length WRN helicase; [4]) was 2.3 ± 0.6 µM and the IC50 [2] was 50 µM.
In the case of `COc1ccc2nc(O)c(-c3noc(-c4ccccc4)n3)cc2c1` [NCGC00063279-02], the “Inhibition … at 200 μM” value [1] is reported as “some ability to inhibit”, the “Inhibition of WRN exonuclease activity” value [1] is reported as “unable to inhibit” and the remaining activity at 50 µM (full-length WRN helicase; full-length WRN 1 nM) is reported as 18%. It also gave an IC50 (full-length WRN helicase; [3]) of 12 µM, an IC50 (full-length WRN helicase; [4]) of 13 ± 3.6 µM and an IC50 [2] of 21.5 µM.
